# Results taken from PubChem BioAssay AID248 (DTP/NCI, 2004).
# “And” between values parts separate entries of the source, which are not always exact repeats. Equal entries are not always repeated. Inconclusive results and toxic doses are left out.
# Test system: L1210 leukemia ip in BDF1 mice, survival T/C
# Assay: NCI In Vivo Anticancer Drug Screen. Data for tumor model L1210 Leukemia (intraperitoneal) in B6D2F1 (BDF1) mice
# Settings: higher = longer survival
# Method in brief: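 Transplantable tumor model; survival measured in treated vs vehicle control mice. Value = treated/control.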
# [1] = endpoint: mean survival time, dose: 100.0 mg/kg/injection, schedule: Q01DX009 (ip), vehicle: saline
# [2] = endpoint: mean survival time, dose: 100.0 mg/kg/injection, schedule: Q04DX003 (ip), vehicle: saline
# [3] = endpoint: mean survival time, dose: 200.0 mg/kg/injection, schedule: Q01DX009 (ip), vehicle: saline
# [4] = endpoint: mean survival time, dose: 200.0 mg/kg/injection, schedule: Q04DX003 (ip), vehicle: saline
# [5] = endpoint: mean survival time, dose: 400.0 mg/kg/injection, schedule: Q01DX009 (ip), vehicle: saline
# [6] = endpoint: mean survival time, dose: 400.0 mg/kg/injection, schedule: Q04DX003 (ip), vehicle: saline
compound,measurement,setting,value
COc1cc([C@@H]2c3cc4c(cc3[C@@H](OC3OC5COC(C)OC5C(O)C3O)[C@H]3COC(=O)[C@H]23)OCO4)cc(OC)c1O (stereo partly drawn),T/C,"endpoint: mean survival time, dose: 1.8 mg/kg/injection, schedule: Q03HX016 (ip), vehicle: saline",292 % of control
same,T/C,"endpoint: mean survival time, dose: 1.8 mg/kg/injection, schedule: Q03HX024 (ip), vehicle: saline",315 % of control
same,T/C,"endpoint: mean survival time, dose: 2.0 mg/kg/injection, schedule: Q01DX009 (ip), vehicle: Klucel (hydroxypropylcellulose) (HPC)",161 % of control and 172 % of control
same,T/C,"endpoint: mean survival time, dose: 2.7 mg/kg/injection, schedule: Q03HX016 (ip), vehicle: saline",510 % of control
same,T/C,"endpoint: mean survival time, dose: 2.7 mg/kg/injection, schedule: Q03HX024 (ip), vehicle: saline",600 % of control
same,T/C,"endpoint: mean survival time, dose: 4.0 mg/kg/injection, schedule: Q01DX001 (sc), vehicle: Klucel (hydroxypropylcellulose) (HPC)",97 % of control
same,T/C,"endpoint: mean survival time, dose: 4.0 mg/kg/injection, schedule: Q01DX001 (sc), vehicle: clinical formulation",102 % of control
same,T/C,"endpoint: mean survival time, dose: 4.0 mg/kg/injection, schedule: Q01DX009 (ip), vehicle: Klucel (hydroxypropylcellulose) (HPC)",104 % of control and 196 % of control and 266 % of control
same,T/C,"endpoint: mean survival time, dose: 4.0 mg/kg/injection, schedule: Q01DX009 (sc), vehicle: clinical formulation",183 % of control
same,T/C,"endpoint: mean survival time, dose: 4.0 mg/kg/injection, schedule: Q03HX016 (ip), vehicle: saline",409 % of control
same,T/C,"endpoint: mean survival time, dose: 4.0 mg/kg/injection, schedule: Q03HX016 (oral), vehicle: Klucel (hydroxypropylcellulose) (HPC)",105 % of control
same,T/C,"endpoint: mean survival time, dose: 4.0 mg/kg/injection, schedule: Q03HX024 (ip), vehicle: saline",568 % of control
same,T/C,"endpoint: mean survival time, dose: 4.5 mg/kg/injection, schedule: Q03HX024 (ip), vehicle: saline",409 % of control
same,T/C,"endpoint: mean survival time, dose: 6.0 mg/kg/injection, schedule: Q03HX016 (ip), vehicle: saline",154 % of control
same,T/C,"endpoint: mean survival time, dose: 8.0 mg/kg/injection, schedule: Q01DX001 (sc), vehicle: Klucel (hydroxypropylcellulose) (HPC)",103 % of control
same,T/C,"endpoint: mean survival time, dose: 8.0 mg/kg/injection, schedule: Q01DX001 (sc), vehicle: clinical formulation",106 % of control
same,T/C,"endpoint: mean survival time, dose: 8.0 mg/kg/injection, schedule: Q01DX009 (sc), vehicle: clinical formulation",180 % of control
same,T/C,"endpoint: mean survival time, dose: 8.0 mg/kg/injection, schedule: Q03HX016 (oral), vehicle: Klucel (hydroxypropylcellulose) (HPC)",105 % of control
same,T/C,"endpoint: mean survival time, dose: 8.0 mg/kg/injection, schedule: Q04DX003 (ip), vehicle: Klucel (hydroxypropylcellulose) (HPC)",225 % of control
same,T/C,"endpoint: mean survival time, dose: 12.0 mg/kg/injection, schedule: Q03DX003 (ip), vehicle: saline",319 % of control
same,T/C,"endpoint: mean survival time, dose: 12.0 mg/kg/injection, schedule: Q04DX003 (ip), vehicle: saline",213 % of control
same,T/C,"endpoint: mean survival time, dose: 16.0 mg/kg/injection, schedule: Q01DX001 (sc), vehicle: Klucel (hydroxypropylcellulose) (HPC)",106 % of control
same,T/C,"endpoint: mean survival time, dose: 16.0 mg/kg/injection, schedule: Q01DX001 (sc), vehicle: clinical formulation",117 % of control
same,T/C,"endpoint: mean survival time, dose: 16.0 mg/kg/injection, schedule: Q01DX009 (sc), vehicle: Klucel (hydroxypropylcellulose) (HPC)",208 % of control
same,T/C,"endpoint: mean survival time, dose: 16.0 mg/kg/injection, schedule: Q01DX009 (sc), vehicle: clinical formulation",187 % of control
same,T/C,"endpoint: mean survival time, dose: 16.0 mg/kg/injection, schedule: Q03HX016 (oral), vehicle: Klucel (hydroxypropylcellulose) (HPC)",105 % of control
same,T/C,"endpoint: mean survival time, dose: 16.0 mg/kg/injection, schedule: Q08DX002 (ip), vehicle: Klucel (hydroxypropylcellulose) (HPC)",157 % of control
same,T/C,"endpoint: mean survival time, dose: 18.0 mg/kg/injection, schedule: Q03DX003 (ip), vehicle: saline",395 % of control
same,T/C,"endpoint: mean survival time, dose: 18.0 mg/kg/injection, schedule: Q04DX003 (ip), vehicle: saline",372 % of control
same,T/C,"endpoint: mean survival time, dose: 27.0 mg/kg/injection, schedule: Q03DX003 (ip), vehicle: saline",552 % of control
same,T/C,"endpoint: mean survival time, dose: 27.0 mg/kg/injection, schedule: Q04DX003 (ip), vehicle: saline",506 % of control
same,T/C,"endpoint: mean survival time, dose: 32.0 mg/kg/injection, schedule: Q01DX001 (sc), vehicle: Klucel (hydroxypropylcellulose) (HPC)",115 % of control
same,T/C,"endpoint: mean survival time, dose: 32.0 mg/kg/injection, schedule: Q01DX009 (oral), vehicle: Klucel (hydroxypropylcellulose) (HPC)",109 % of control
same,T/C,"endpoint: mean survival time, dose: 32.0 mg/kg/injection, schedule: Q03HX016 (oral), vehicle: Klucel (hydroxypropylcellulose) (HPC)",119 % of control
same,T/C,"endpoint: mean survival time, dose: 32.0 mg/kg/injection, schedule: Q04DX003 (oral), vehicle: Klucel (hydroxypropylcellulose) (HPC)",109 % of control
same,T/C,"endpoint: mean survival time, dose: 32.0 mg/kg/injection, schedule: Q08DX002 (ip), vehicle: Klucel (hydroxypropylcellulose) (HPC)",338 % of control
same,T/C,"endpoint: mean survival time, dose: 40.0 mg/kg/injection, schedule: Q03DX003 (ip), vehicle: saline",562 % of control
same,T/C,"endpoint: mean survival time, dose: 40.0 mg/kg/injection, schedule: Q04DX003 (ip), vehicle: saline",584 % of control
same,T/C,"endpoint: mean survival time, dose: 50.0 mg/kg/injection, schedule: Q01DX001 (ip), vehicle: Klucel (hydroxypropylcellulose) (HPC)",276 % of control
same,T/C,"endpoint: mean survival time, dose: 50.0 mg/kg/injection, schedule: Q01DX001 (ip), vehicle: saline",116 % of control
same,T/C,"endpoint: mean survival time, dose: 60.0 mg/kg/injection, schedule: Q03DX003 (ip), vehicle: saline",86 % of control
same,T/C,"endpoint: mean survival time, dose: 64.0 mg/kg/injection, schedule: Q01DX001 (oral), vehicle: Klucel (hydroxypropylcellulose) (HPC)",103 % of control
same,T/C,"endpoint: mean survival time, dose: 64.0 mg/kg/injection, schedule: Q01DX001 (sc), vehicle: clinical formulation",120 % of control
same,T/C,"endpoint: mean survival time, dose: 64.0 mg/kg/injection, schedule: Q03HX016 (oral), vehicle: Klucel (hydroxypropylcellulose) (HPC)",108 % of control
same,T/C,"endpoint: mean survival time, dose: 64.0 mg/kg/injection, schedule: Q04DX003 (oral), vehicle: Klucel (hydroxypropylcellulose) (HPC)",123 % of control
same,T/C,"endpoint: mean survival time, dose: 64.0 mg/kg/injection, schedule: Q08DX002 (ip), vehicle: Klucel (hydroxypropylcellulose) (HPC)",417 % of control
same,T/C,"endpoint: mean survival time, dose: 100.0 mg/kg/injection, schedule: Q01DX001 (ip), vehicle: Klucel (hydroxypropylcellulose) (HPC)",448 % of control
same,T/C,"endpoint: mean survival time, dose: 100.0 mg/kg/injection, schedule: Q01DX001 (ip), vehicle: saline",176 % of control
same,T/C,"endpoint: mean survival time, dose: 128.0 mg/kg/injection, schedule: Q01DX001 (oral), vehicle: Klucel (hydroxypropylcellulose) (HPC)",104 % of control and 106 % of control
same,T/C,"endpoint: mean survival time, dose: 128.0 mg/kg/injection, schedule: Q01DX001 (oral), vehicle: clinical formulation",109 % of control
same,T/C,"endpoint: mean survival time, dose: 128.0 mg/kg/injection, schedule: Q03HX016 (oral), vehicle: Klucel (hydroxypropylcellulose) (HPC)",118 % of control
same,T/C,"endpoint: mean survival time, dose: 128.0 mg/kg/injection, schedule: Q08DX002 (ip), vehicle: Klucel (hydroxypropylcellulose) (HPC)",119 % of control
same,T/C,"endpoint: mean survival time, dose: 256.0 mg/kg/injection, schedule: Q01DX001 (oral), vehicle: Klucel (hydroxypropylcellulose) (HPC)",104 % of control and 110 % of control
same,T/C,"endpoint: mean survival time, dose: 256.0 mg/kg/injection, schedule: Q01DX001 (oral), vehicle: clinical formulation",106 % of control
same,T/C,"endpoint: mean survival time, dose: 256.0 mg/kg/injection, schedule: Q01DX001 (sc), vehicle: Klucel (hydroxypropylcellulose) (HPC)",166 % of control
same,T/C,"endpoint: mean survival time, dose: 256.0 mg/kg/injection, schedule: Q01DX001 (sc), vehicle: clinical formulation",188 % of control
same,T/C,"endpoint: mean survival time, dose: 256.0 mg/kg/injection, schedule: Q01DX009 (oral), vehicle: Klucel (hydroxypropylcellulose) (HPC)",103 % of control
same,T/C,"endpoint: mean survival time, dose: 512.0 mg/kg/injection, schedule: Q01DX001 (oral), vehicle: Klucel (hydroxypropylcellulose) (HPC)",106 % of control and 118 % of control
same,T/C,"endpoint: mean survival time, dose: 512.0 mg/kg/injection, schedule: Q01DX001 (oral), vehicle: clinical formulation",165 % of control
same,T/C,"endpoint: mean survival time, dose: 512.0 mg/kg/injection, schedule: Q01DX009 (oral), vehicle: Klucel (hydroxypropylcellulose) (HPC)",91 % of control
same,T/C,"endpoint: mean survival time, dose: 1024.0 mg/kg/injection, schedule: Q01DX001 (oral), vehicle: Klucel (hydroxypropylcellulose) (HPC)",111 % of control
same,T/C,"endpoint: median survival time, dose: 2.0 mg/kg/injection, schedule: Q01DX009 (ip), vehicle: saline",172 % of control
same,T/C,"endpoint: median survival time, dose: 2.0 mg/kg/injection, schedule: Q01DX009 (sc), vehicle: Klucel (hydroxypropylcellulose) (HPC)",121 % of control
same,T/C,"endpoint: median survival time, dose: 4.0 mg/kg/injection, schedule: Q01DX009 (ip), vehicle: saline",188 % of control
same,T/C,"endpoint: median survival time, dose: 8.0 mg/kg/injection, schedule: Q01DX009 (ip), vehicle: saline",611 % of control
same,T/C,"endpoint: median survival time, dose: 8.0 mg/kg/injection, schedule: Q01DX009 (sc), vehicle: Klucel (hydroxypropylcellulose) (HPC)",168 % of control
same,T/C,"endpoint: median survival time, dose: 16.0 mg/kg/injection, schedule: Q01DX009 (sc), vehicle: Klucel (hydroxypropylcellulose) (HPC)",110 % of control
same,T/C,"endpoint: median survival time, dose: 32.0 mg/kg/injection, schedule: Q01DX009 (sc), vehicle: Klucel (hydroxypropylcellulose) (HPC)",89 % of control
CCCn1c(=S)[nH]c2ccccc2c1=O,T/C,[1],95 % of control
same,T/C,[2],88 % of control
same,T/C,[3],107 % of control
same,T/C,[4],86 % of control
same,T/C,[5],101 % of control
same,T/C,[6],96 % of control
Clc1ccnc(Cl)n1,T/C,[1],97 % of control
same,T/C,[2],96 % of control
same,T/C,[3],101 % of control
same,T/C,[4],96 % of control
same,T/C,[5],97 % of control
same,T/C,[6],97 % of control
CCN(CC)Cc1cc(Nc2ncnc3[nH]c(C)c(C)c23)ccc1O,T/C,"endpoint: mean survival time, dose: 12.5 mg/kg/injection, schedule: Q04DX002 (ip), vehicle: saline with Tween-80",98 % of control
same,T/C,"endpoint: mean survival time, dose: 25.0 mg/kg/injection, schedule: Q04DX002 (ip), vehicle: saline with Tween-80",94 % of control
same,T/C,"endpoint: mean survival time, dose: 50.0 mg/kg/injection, schedule: Q04DX002 (ip), vehicle: saline with Tween-80",88 % of control
